Assay: gradient 5% acetonitrile 3 min, to 50% in 2 min, to 85% in 15 min, held 3 min, 100 µL/min
Details: column: Zorbax Extend-C18 2.1 x 50 mm; eluents: water / acetonitrile, 0.1% formic acid
Procedure, shortened: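 The system's dead and dwell volumes were 40 μL and 900 μL, with a Zorbax Extend-C18 column (2.1 × 50 mm, 1.8 μm) run at 100 μL/min in water and acetonitrile containing 0.1% formic acid each. Pure standards were analyzed in mixtures of ~100 molecules by HPLC–quadrupole time-of-flight mass spectrometry in positive and negative ionization mode. Retention time was assigned from computationally picked, manually inspected adduct peaks.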

| Structure (SMILES) | RP-LC retention time |
| --- | --- |
| CC(=O)NCC(=O)N1[C@@H]2CC[C@H]1c1ccc(Nc3ncc(C(F)(F)F)c(NC4CCC4)n3)cc12 | 716 s |
| Cc1cc(C)nc(NS(=O)(=O)c2ccc(NC(=O)c3ccc(Cl)s3)cc2)n1 | 755 s |
| Cc1ccc(-n2c(=O)c3c(cc(C)n3C)n(CC(=O)Nc3ccc4c(c3)OCO4)c2=O)cc1 | 819 s |
| Cc1cccc(NC(=O)Nc2nccn(-c3ccc(C(C)C)cc3)c2=O)c1 | 1190 s |
| COc1cccc(CNC(=O)c2c(C)oc3ccn(C)c(=O)c23)c1 | 844 s |
| Cc1cccc(-c2nc(-c3ccc4c(c3)nc(C)c(=O)n4C)no2)c1 | 1120 s |
| CN1CCC(N2CCN(c3ncccc3-c3nnc(-c4ccc(Cl)cc4)o3)CC2)CC1 | 586 s |
| CCNC(=O)C(=O)NCC(c1ccc2c(c1)CCCN2C)N1CCCCC1 (stereo unspecified) | 649 s |
| Cc1ccc(-c2nc(-c3ccc4c(c3)nc(C)c(=O)n4C)no2)cc1F | 1150 s |
| COc1ccc(NC(=O)c2cc3c(=O)oc4ccccc4c3n2C)cc1Cl | 1020 s |
| CC(O)(CNC(=O)C(=O)Nc1cccc(N2CCCCC2=O)c1)c1ccccc1 (stereo unspecified) | 668 s |
| CN(C)c1ncncc1N1CCC(C(=O)NCc2ccc(Cl)cc2)CC1 | 643 s |
| COc1cccc(-c2noc(Cc3nnc(-c4cccc(F)c4)o3)n2)c1OC | 934 s |
| C[C@]12CC[C@H]3[C@@H](C[C@H](F)C4=CC(=O)CC[C@@]43C)[C@@H]1CC[C@@H]2O | 798 s |
| CC(NC(=O)c1cn2cc(Cl)ccc2n1)c1ccc(F)cc1 (stereo unspecified) | 836 s |
| CSc1ccc(-c2nc3cnccn3c2Nc2cccc(C(F)(F)F)c2)cc1 | 1020 s |
| O=c1[nH]cc(S(=O)(=O)N2CCOCC2)c(=O)[nH]1 | 546 s |
| Cc1cc2c(cc1S(=O)(=O)N1CCC(C(=O)NCc3ccc(Cl)cc3)CC1)OCC(=O)N2 | 786 s |
| Cc1ccc(NC(=O)C2CC(=O)N(CCc3c[nH]c4ccc(Cl)cc34)C2)cc1 (stereo unspecified) | 884 s |
| Fc1ccc(-c2noc(-c3ccc(N4CCCCC4)nc3)n2)cc1 | 1360 s |
| CCn1ccc2sc(C)c(C(=O)NCc3ccco3)c2c1=O | 723 s |

| Structure (SMILES) | RP-LC retention time |
| --- | --- |
| CCCCOc1ccc(C(=O)Oc2coc(CSc3nncn3C)cc2=O)cc1 | 739 s |
| O=C(NCc1ccc(C(F)(F)F)cc1)C1CCCN(c2cn[nH]c(=O)c2)C1 (stereo unspecified) | 712 s |
| O=C(NCc1ccco1)c1csc(N2CCN(c3cccc(Cl)c3)CC2)n1 | 1080 s |
| CCn1c(=O)n(CC)c2cc(N3CCCC3)c(NC(=O)NCc3ccc(F)cc3)cc21 | 648 s |
| CNc1cc(-c2ccccc2)[nH]n1 | 553 s |
| CCCn1cnnc1C1CCCCN1C(=O)CCc1c(C)nn(C)c1C (stereo unspecified) | 589 s |
| COc1ccc(-n2ccc(=O)c(-c3nc(-c4ccc(F)cc4)no3)n2)cc1 | 851 s |
| O=C(Nc1ccc(-c2nnc3n2CCCC3)cc1)c1ccsc1 | 631 s |
| COc1ccc(NC(=O)CSc2nnc3c4sc(N5CCCC5)nc4ncn23)cc1 | 754 s |
| CCCn1cc(C(=O)Nc2ccccc2CC)c2cccnc21 | 919 s |
| CSc1ccc(-c2nc3cnccn3c2Nc2ccc(C(=O)NCc3ccco3)cc2)cc1 | 778 s |
| CCCn1cc(CCNC(=O)Cc2cccc(Cl)c2)c2cccnc21 | 799 s |
| O=C(Nc1nc(-c2cccs2)cs1)c1cccc([N+](=O)[O-])c1 | 936 s |
| CCn1cc(-c2nc(-c3ccccc3OC)no2)c(=O)c2cc(F)ccc21 | 820 s |
| CCOc1cc(C(=O)Nc2nc(-c3ccc4c(c3)NC(=O)CO4)c(C)s2)cc(OCC)c1OCC | 1140 s |
| CCN(CC)CCCC(C)Nc1cc(Cl)cc2nc3ccc(OC)cc3cc12 (stereo unspecified) | 609 s |
| CCc1ccc(N2C(=O)C3N=NN(Cc4nc(-c5cccc(C(F)(F)F)c5)no4)C3C2=O)cc1 (stereo unspecified) | 1130 s |
| Cc1ccccc1Nc1c(-c2ccc(Cl)cc2)nc2ncccn12 | 908 s |
| O=C(c1cnccn1)N1[C@H]2CC[C@@H]1c1cnc(-c3ccc(F)cc3)nc1C2 | 810 s |
| COc1cccc(C(=O)N2CCC3(CC2)c2nccn2-c2ccccc2CN3C)c1 | 612 s |
| O=S(=O)(c1cccc2nsnc12)N1CCC(Cc2nc(-c3cccnc3)n[nH]2)C1 (stereo unspecified) | 633 s |

The next lines start with the values.

| RP-LC retention time | Structure (SMILES) |
| --- | --- |
| 938 s | Cc1csc(-n2nc(C)c(CC(=O)Nc3ccccc3F)c2C)n1 |
| 817 s | COCCOCc1nc(C2CCN(S(=O)(=O)c3cc(F)ccc3F)C2)no1 (stereo unspecified) |
| 1150 s | CCOc1ccccc1-c1noc(-c2nnn3c2COC(c2ccc(Cl)cc2)C3)n1 (stereo unspecified) |
| 725 s | Cc1cccc(NS(=O)(=O)c2cc(-c3[nH]ncc3C(=O)N3CCCC3)oc2C)c1C |
| 705 s | O=C(Cn1nc2n(c1=O)CCCCC2)NCc1ccccc1Br |
| 1220 s | O=C(Nc1ccc(Br)cc1)C1CCCN(c2nccnc2Sc2ccccc2)C1 (stereo unspecified) |
| 904 s | Cc1cccc(OCC(=O)N2CCN(S(=O)(=O)c3c(C)nn(C(C)C)c3C)CC2)c1 |
| 1010 s | Cc1sc(NC(=O)CCc2ccccc2)nc1-c1ccc2c(c1)N(C)C(=O)CO2 |
| 952 s | CCCc1noc(-c2ccnc(-n3cnc(C(=O)NC4CCCC4)c3)c2)n1 |
| 549 s | Cn1nc(N2CCC(NC(=O)Cc3ccncc3)C2)ccc1=O (stereo unspecified) |
| 1260 s | CCc1nc2cc(-c3noc(-c4ccccc4Br)n3)ccc2o1 |
| 675 s | O=C(Cc1nnc(-c2ccccc2)o1)NC1CCCC1 |
| 801 s | Cc1nc2ccn(Cc3cccs3)c(=O)c2cc1C(=O)NC1CCCCC1 |
| 827 s | O=C(Nc1ccc2c(c1)OCCO2)C1CC(=O)N(CCc2c[nH]c3ccc(Cl)cc23)C1 (stereo unspecified) |
| 709 s | COc1ccc(NC(=O)Cn2nc3cc(C)nc(N4CCCC4)n3c2=O)cc1 |
| 1090 s | Cc1ccccc1Oc1nccnc1N1CCC(C(=O)NC2CCCCCC2)CC1 |
| 614 s | Cc1cc(N2CCN(C)CC2)nc2ccc(NC(=O)NCCc3ccccc3)cc12 |
| 659 s | CC1CCCCC1NC(=O)C1(C)Cn2c(cc3occc32)C(=O)N1Cc1cccnc1 (stereo unspecified) |
| 688 s | COc1ccccc1CC(=O)NC1CCN(c2cc(-c3ccccc3)[nH]n2)C1 (stereo unspecified) |
| 887 s | CCN1C(=O)c2cc(C(=O)Nc3cccc(Cl)c3)nn2CC1(C)C(=O)NC1CCCC1 (stereo unspecified) |
| 617 s | CCN1CCN(C(=O)c2ccc(S(=O)(=O)c3ccccc3)s2)CC1 |
| 731 s | CCc1ccccc1NC(=O)N1CC(c2nc(C)no2)C2(CCOCC2)C1 (stereo unspecified) |
| 575 s | Cc1onc(-c2ccncc2)c1C(=O)NCCN(C)C1CCCCC1 |
| 749 s | O=C(NCCC1CCN(C(=O)Nc2ccccc2)CC1)c1ccsc1 |

Reference: the METLIN SMRT retention time set (Domingo-Almenara et al. 2019)
